The values that follow come from patent US20260209220A1, “SUBSTITUTED TETRAHYDROPYRROLO-PYRIDINONE COMPOUNDS AND THEIR USE IN TREATING MEDICAL CONDITIONS” (Karuna Therapeutics, Inc., priority 2022, published 2026).

pEC50: −log10 of the molar value.

One assay concerns the target T1, hM4 receptors (Homo sapiens, UniProt P08173).
T1 construct: expressed in transfected cells; host or cells: CHO cells
T1 sequence (P08173 1-479): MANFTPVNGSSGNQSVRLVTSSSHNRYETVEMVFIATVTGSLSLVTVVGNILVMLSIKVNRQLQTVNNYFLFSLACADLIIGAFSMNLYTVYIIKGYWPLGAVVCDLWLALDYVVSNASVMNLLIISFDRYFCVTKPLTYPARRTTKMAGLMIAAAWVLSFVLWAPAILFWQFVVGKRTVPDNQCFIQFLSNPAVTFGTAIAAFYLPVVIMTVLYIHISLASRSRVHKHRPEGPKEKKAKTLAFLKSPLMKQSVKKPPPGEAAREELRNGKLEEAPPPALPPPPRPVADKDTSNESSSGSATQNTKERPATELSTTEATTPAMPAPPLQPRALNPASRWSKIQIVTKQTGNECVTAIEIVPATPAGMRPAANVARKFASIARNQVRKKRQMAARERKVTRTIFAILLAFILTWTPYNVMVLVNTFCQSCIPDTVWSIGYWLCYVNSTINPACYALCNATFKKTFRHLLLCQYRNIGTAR
In words: Human M4 PAM PERK assay (CHO cells, TR-FRET, with EC20 acetylcholine). Format: cell-based. Summed up:
(§1)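 CHO cells expressing human or rat M4, serum-starved 4 h, then given compound (10-point, 10 μM top, ½-log) with EC20 acetylcholine (10 nM final) for 5 min at 37 °C. Lysates assayed for phospho-ERK by TR-FRET after 2 h detection at RT.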
For orientation: Time-resolved FRET reads energy transfer from a long-lived donor to a nearby acceptor.

The next assay deals with T2, rM4 receptors (Rattus norvegicus, UniProt P08485).
T2 construct: expressed in transfected cells; host or cells: CHO cells
T2 sequence (P08485 1-478): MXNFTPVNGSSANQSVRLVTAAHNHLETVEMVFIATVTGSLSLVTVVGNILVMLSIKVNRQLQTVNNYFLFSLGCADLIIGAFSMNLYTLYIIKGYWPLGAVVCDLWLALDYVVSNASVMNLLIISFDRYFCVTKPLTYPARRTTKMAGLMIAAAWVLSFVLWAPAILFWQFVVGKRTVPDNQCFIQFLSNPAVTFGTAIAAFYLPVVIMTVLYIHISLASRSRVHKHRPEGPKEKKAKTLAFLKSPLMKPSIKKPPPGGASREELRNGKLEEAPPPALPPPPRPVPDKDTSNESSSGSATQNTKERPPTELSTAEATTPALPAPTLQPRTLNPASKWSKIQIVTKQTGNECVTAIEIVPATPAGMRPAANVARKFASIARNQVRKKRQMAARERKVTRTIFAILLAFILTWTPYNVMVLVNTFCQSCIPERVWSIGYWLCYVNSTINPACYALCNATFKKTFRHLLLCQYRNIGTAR
In words: Rat M4 PAM PERK assay (CHO cells, TR-FRET, with EC20 acetylcholine). Format: cell-based. Summed up:
as §1

A further assay deals with T3, human M4 receptor (Homo sapiens, UniProt P08173).
T3 construct: expressed in transfected cells; host or cells: CHO-K1 cells (membranes)
T3 sequence (P08173 1-479): T1 sequence (P08173 1-479)
In words: M4 GTPγS PAM assay (CHO-K1 membranes, 35S-GTP binding, with EC20 acetylcholine). Format: biochemical. The following applies: with EC20 acetylcholine (40 nM). Here is the method:
The M4 GTPγS PAM method was used. Membranes were prepared for GTPgS binding assays from CHO-K1 cells stably expressing human M4 receptor. Briefly, cells were grown in 5-layer cell culture flasks. Cells were washed with 50 mL of PBS and then dissociated with 0.05% trypsin. Dissociated cells were then collected by centrifugation at 650×g for 8 minutes at 4° C. Pellets were washed again in PBS by centrifugation and resuspended in 30 mL of 20 mM HEPES, 10 mM EDTA, pH 7.4. After sitting on ice for 30 min, membranes were collected by centrifugation at 50000×g for 15′ at 4° C., resuspended in 30 mL of 20 mM HEPES, 0.1 mM EDTA, pH 7.4 and collected again by centrifugation. Pellets were then washed twice by centrifugation in 30 mL of 20 mM HEPES, pH 7.4, and stored at −80° C. until the day of the assay. On the day of the assay, pellets were thawed on ice and resuspended in 1 mL of 20 mM HEPES, pH 7.4, 10 mM MgCl2, 100 mM NaCl using dounce homogenization. Membrane protein concentration is determined by BCA protein assay (Promega, Madison, WI) according to Promega guidelines.
On the day of the assay, serial dilutions of test PAM compounds were brought up in assay buffer (20 mM HEPES, 10 mM MgCl2, 100 mM NaCl) at 4X final assay concentration. […] of membrane homogenates (containing […] of membrane protein) were prepared in assay buffer supplemented with GDP at […] final assay concentration (final assay concentration of GDP is 5 μM for M2 and 0.1 μM for M4) and dispensed into 96 well polypropylene, U-bottom Greiner plates. 25 ml of vehicle or test PAM compound at 4× of final assay concentration diluted in the assay buffer were added to membrane and plates are incubated for 10-15 minutes at room temperature with gentle shaking. Then, […] of EC20 acetylcholine in assay buffer at 4× final assay concentration was added to assay plates (EC20 final assay concentrations was 40 nM for human M4).
Plates were then incubated, with shaking, for an additional 10-15 minutes. […] of 0.4 nM 35S-GTP (Perkin Elmer, Waltham, MA) in assay buffer was added to assay mixtures. The binding reaction is left on the shaker for 1 hour at room temperature. Membranes in assay reactions were then transferred to GF/C filter plates (Unifilter, Perkin Elmer) and washed three times using a FilterMate Harvester (Perkin Elmer) with cold assay buffer containing no GDP. Filter plates were then dried at 40° C. overnight followed by the addition of […] of Beta Plate Scintillation liquid. Plates are top and bottom sealed before being read on TopCount scintillation counter (Perkin Elmer, Waltham, MA).

For `Cc1cc(=O)n(C)c2c1CN(C(=O)CC1CN(c3ccc(C(F)(F)F)cn3)C1)C2` [Compound I-8], the results for the pEC50 at hM4 receptors, on rM4 receptors and on human M4 receptor were 6.00 to 6.70, < 6.00 and < 6.00, respectively.

For the compound `Cc1c2c(n(C)c(=O)c1Cl)CN(C(=O)CC1CN(c3ccnc(C(F)(F)F)c3)C1)C2` [Compound I-66, 3-Chloro-1,4-dimethyl-6-(2-(1-(2-(trifluoromethyl)pyridin-4-yl)azetidin-3-yl)acetyl)-1,5,6,7-tetrahydro-2H-pyrrolo[3,4-b]pyridin-2-one], the pEC50 (commonly the EC50 on a negative log10 scale, so that one unit is a factor of ten) is > 7.30 at hM4 receptors, 6.70 to 7.30 on rM4 receptors and > 7.30 on human M4 receptor.

Consider `Cc1c2c(n(C)c(=O)c1Cl)CN(C(=O)CC1CN(c3ccnc(C(F)(F)F)c3)C1)C2C` (stereo not drawn) [Compound I-118, 3-Chloro-1,4,5-trimethyl-6-(2-(1-(2-(trifluoromethyl)pyridin-4-yl)azetidin-3-yl)acetyl)-1,5,6,7-tetrahydro-2H-pyrrolo[3,4-b]pyridin-2-one], for which the pEC50 at hM4 receptors is > 7.30; at rM4 receptors, 6.70 to 7.30; on human M4 receptor, > 7.30.

As to `Cc1cc(=O)n(C)c2c1C(C)N(C(=O)CC1CN(c3ccc(C(F)(F)F)cc3)C1)C2` (stereo not drawn) [Compound I-115], the pEC50 at hM4 receptors was 6.00 to 6.70; on rM4 receptors, 6.00 to 6.70; at human M4 receptor it was 6.70 to 7.30.

For the compound `Cc1c2c(n(C)c(=O)c1Cl)CN(C(=O)C(C)C1CN(c3ccnc(C(F)(F)F)c3)C1)C2` (single isomer, unassigned) [Compound I-82, 3-Chloro-1,4-dimethyl-6-(2-(1-(2-(trifluoromethyl)pyridin-4-yl)azetidin-3-yl)propanoyl)-1,5,6,7-tetrahydro-2H-pyrrolo[3,4-b]pyridin-2-one], the pEC50 at hM4 receptors, at rM4 receptors and at human M4 receptor was < 6.00 each time.

`Cc1c2c(n(C)c(=O)c1C)CN(C(=O)CC1CN(c3cnc(C4CC4)cn3)C1)C2` [Compound I-58]: the pEC50 at hM4 receptors, on rM4 receptors and on human M4 receptor was 6.70 to 7.30 throughout.

In the case of `Cc1cc(=O)n(C)c2c1CN(C(=O)CC1CN(c3ccnc(C4CC4)c3)C1)C2` [Compound I-22], the pEC50 on hM4 receptors is 6.70 to 7.30; on rM4 receptors, 6.00 to 6.70; on human M4 receptor, 6.00 to 6.70.

Take `Cc1c2c(n(C)c(=O)c1Cl)CN(C(=O)CC1CN(c3ccc(C(F)(F)F)nc3)C1)C2` [Compound I-78]: the values for the pEC50 on hM4 receptors, on rM4 receptors and at human M4 receptor were > 7.30, 6.70 to 7.30 and 6.70 to 7.30, respectively.

`Cc1c2c(n(C)c(=O)c1C)CN(C(=O)CC1CN(c3nc(C(F)(F)F)c(C4CC4)s3)C1)C2` [Compound I-64, 6-(2-(1-(5-Cyclopropyl-4-(trifluoromethyl)thiazol-2-yl)azetidin-3-yl)acetyl)-1,3,4-trimethyl-1,5,6,7-tetrahydro-2H-pyrrolo[3,4-b]pyridin-2-one]: the pEC50 at hM4 receptors was 6.70 to 7.30; at rM4 receptors it was 6.00 to 6.70; at human M4 receptor, 6.70 to 7.30.

`Cc1cc(=O)n(C)c2c1CN(C(=O)CC1CN(c3ccc(C4CC4)cc3)C1)C2` [Compound I-19]: the results for the pEC50 at hM4 receptors, at rM4 receptors and at human M4 receptor were 6.00 to 6.70, 6.70 to 7.30 and 6.70 to 7.30, respectively.

On to `Cc1c2c(n(C)c(=O)c1C)CN(C(=O)CC1CN(c3ccc(C4CC4)c(F)c3)C1C)C2` (single isomer, unassigned) [Compound I-62], for which the pEC50 on hM4 receptors, on rM4 receptors and at human M4 receptor was 6.00 to 6.70 throughout.

`Cc1c2c(n(C)c(=O)c1Cl)CN(C(=O)CC1CN(c3ccc(C(F)(F)F)cc3)C1)C2` [Compound I-68]: the pEC50 on hM4 receptors, on rM4 receptors and on human M4 receptor was > 7.30 throughout.
